In PMC11025159 (Journal of Translational Medicine, 2024):

System: athymic nude mice (NU/J Foxn1nu)
Experiment: Hair growth in athymic nude mice (topical, 28 days)
Type: in vivo
Details: for H&E skin histopathology finding / hair follicle grade: day 28; for early onset of hair: topical
Description: The groups are as follows: Group 1-Control (untreated), Group 2-Vehicle control, Group 3-tofacitinib citrate (0.8 mg/Kg), Group 4-tofacitinib citrate (0.08 mg/Kg), Group 5-MJ04 (0.08 mg/Kg), Group 6-MJ04 (0.04 mg/Kg), Group 7-MJ04 (0.016 mg/Kg), Group 8-baricitinib (0.1 mg/Kg), Group 9-baricitinib (0.04 mg/Kg), and Group 10-baricitinib (0.02 mg/Kg). At the end of the experiment, skin samples were collected and preserved in 10% neutral buffered formalin for tissue sectioning and staining using haematoxylin and eosin (H&E). The histopathological examinations were performed under the 10× and 40× objectives of light microscope (Magnus, Mx21i), and hair follicles were graded on a scale of 0 to 4 (++++).
The skin samples collected from athymic nude mice (NU/J Foxn1^nu) were preserved in 10% neutral buffered formalin and processed for tissue sectioning. The skin sections (10 µm) of nude mice were stained using haematoxylin and eosin (H&E) and viewed under 10× and 40× objectives of the light microscope (Magnus, Mx21i). The histopathological examination of the samples was performed, and the hair follicles in the skin sections were graded on a scale of 0 to 4 (++++).

Compound	H&E skin histopathology finding (0.016 mg/kg)	hair follicle grade (0.016 mg/kg)	H&E skin histopathology finding (0.04 mg/kg)	hair follicle grade (0.04 mg/kg)	H&E skin histopathology finding (0.08 mg/kg)	hair follicle grade (0.08 mg/kg)	early onset of hair [days]	H&E skin histopathology finding (0.02 mg/kg)	hair follicle grade (0.02 mg/kg)	H&E skin histopathology finding (0.1 mg/kg)	hair follicle grade (0.1 mg/kg)
Fc1ccc(-c2cnc3[nH]cc(-c4ccnc(NC5CC5)n4)c3c2)cc1 [MJ04]	Mild epidermal thickening with increased hair follicles	+++ (graded on a scale ranging from 0 to 4 (++++))	Mild epidermal thinning with increased hair follicles in the dermis and hypodermis	++++ (graded on a scale ranging from 0 to 4 (++++))	Minimal epidermal thickening with moderate hair follicle	++ (graded on a scale ranging from 0 to 4 (++++))	12	–	–	–	–
CCS(=O)(=O)N1CC(CC#N)(n2cc(-c3ncnc4[nH]ccc34)cn2)C1 [Baricitinib, baricitinib, reference compound]	–	–	Moderate degree of epidermal thickening	++++ (graded on a scale ranging from 0 to 4 (++++))	–	–	12	Moderate degree of epidermal thickening	++++ (graded on a scale ranging from 0 to 4 (++++))	Increased and morphologically distinct hair follicles	+++ (graded on a scale ranging from 0 to 4 (++++))
